Results: US11999727B2 (Tango Therapeutics, Inc., priority 2020, dated 2024)

Assays:
PRMT5 [1] = biological target: T1, PRMT5 (Homo sapiens, UniProt O14744); assay: PRMT5 biochemical IC50 assay with MTA as cofactor; settings: PRMT5, MTA as cofactor; read-out: MTA IC50
T1 construct: purchased Viva (custom protein)

PRMT5 [2] = biological target: T1, PRMT5; assay: PRMT5 biochemical IC50 assay with SAM as cofactor; settings: PRMT5, SAM as cofactor; read-out: SAM IC50
[3] = test system: HAP1 MTAP-intact cell line; assay: SDMA in-cell western assay, HAP1 MTAP-intact; format: cell-based; settings: Homo sapiens, HAP1, SDMA in-cell western, HAP1 MTAP-intact; read-out: MTAP HAP1 intact IC50
Summary of the method: (§1)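 IC50 values come from SDMA signal quantified by in-cell western in two HAP1 lines, one with native MTAP levels and one lacking MTAP.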

[4] = test system: HAP1 MTAP-deleted cell line; assay: Viability assay, MTAP-deleted cell line; format: cell-based; settings: Homo sapiens, HAP1, viability assay, HAP1 MTAP-deleted; read-out: HAP1 MTAP deleted viability
From the text: Table 1 additionally indicates IC50 values in a viability assay for the MTAP-deleted cell line (column 10), indicating the effect of treatment with compound on cell survival.

PRMT5 [5] = biological target: T1, PRMT5; assay: PRMT5 biochemical IC50 assay with no cofactor; settings: PRMT5, no cofactor; read-out: No Cofactor/rel IC50
From the text: Table 1 indicates IC50 values (μM) against PRMT5 for exemplary compounds in the presence of SAM as cofactor, with no cofactor, and with MTA as cofactor, respectively (columns 4-6). […] Ki values can be calculated from the IC50 values as described in the Examples section. As detailed in the Examples section, for the assay performed in the presence of SAM, IC50=Ki×1.5 (Ki=IC50/1.5).

[6] = test system: HAP1 MTAP-deleted cell line; assay: SDMA in-cell western assay, HAP1 MTAP-deleted; format: cell-based; settings: for IC50: HAP1 MTAP-deleted, read-out: HAP1 MTAP deleted IC50; for MTAP intact/deleted ratio: IC50 ratio HAP1 MTAP-intact / HAP1 MTAP-deleted
Summary of the method: as §1

[7] = Homo sapiens, HAP1, SDMA in-cell western

T1 sequence (O14744 whole entry): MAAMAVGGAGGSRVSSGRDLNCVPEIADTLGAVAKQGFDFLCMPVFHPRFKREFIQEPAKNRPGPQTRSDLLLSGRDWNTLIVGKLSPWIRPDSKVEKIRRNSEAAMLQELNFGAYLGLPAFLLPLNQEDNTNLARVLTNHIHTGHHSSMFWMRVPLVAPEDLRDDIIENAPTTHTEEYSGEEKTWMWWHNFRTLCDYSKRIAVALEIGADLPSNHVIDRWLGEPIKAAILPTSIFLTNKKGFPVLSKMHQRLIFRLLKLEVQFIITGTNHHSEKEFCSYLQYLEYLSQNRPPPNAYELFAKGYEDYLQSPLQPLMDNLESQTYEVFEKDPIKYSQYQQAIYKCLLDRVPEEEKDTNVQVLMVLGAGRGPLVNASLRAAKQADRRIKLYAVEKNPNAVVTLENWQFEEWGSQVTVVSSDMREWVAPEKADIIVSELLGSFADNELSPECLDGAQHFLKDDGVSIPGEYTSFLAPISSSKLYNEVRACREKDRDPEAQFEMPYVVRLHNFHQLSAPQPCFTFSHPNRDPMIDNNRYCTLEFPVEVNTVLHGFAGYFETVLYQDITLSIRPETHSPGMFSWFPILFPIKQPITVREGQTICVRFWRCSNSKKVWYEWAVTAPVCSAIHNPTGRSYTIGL
T1 sequence (Q9BQA1 whole entry partner): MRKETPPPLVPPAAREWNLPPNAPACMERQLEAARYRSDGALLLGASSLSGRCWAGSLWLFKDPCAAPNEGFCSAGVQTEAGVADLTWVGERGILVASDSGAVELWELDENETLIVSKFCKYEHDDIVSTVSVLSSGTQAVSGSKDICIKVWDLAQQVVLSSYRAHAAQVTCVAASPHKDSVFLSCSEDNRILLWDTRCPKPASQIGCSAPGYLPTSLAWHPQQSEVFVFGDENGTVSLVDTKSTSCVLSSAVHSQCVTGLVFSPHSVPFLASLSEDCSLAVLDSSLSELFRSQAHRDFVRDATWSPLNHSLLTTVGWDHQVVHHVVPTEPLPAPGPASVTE

IC50 (PRMT5 [1]) [nM] | IC50 (PRMT5 [2]) [nM] | IC50 [3] [nM] | IC50 (PRMT5 [5]) [nM] | IC50 [6, 7] [nM] | IC50 ([6]; SDMA in-cell western) [nM] | SMILES | IC50 [4] [µM] | MTAP intact/deleted ratio ([6]; SDMA in-cell western)
< 50 | 50 to 500 | > 1000 | 50 to 500 | > 1000 |  | C[C@@H]1CC[C@@H](c2ccc3c(c2)CNC3=O)N(C(=O)C(=O)Nc2cncc(C(N)=O)c2)C1 (single isomer, unassigned) [Compound 740, 5-(2-(5-methyl-2-(1-oxoisoindolin-5-yl)piperidin-1-yl)-2-oxoacetamido)nicotinamide] | 1 to 10 | B (an IC50 ratio greater than or equal to 3 fold but lower than 10 fold)
> 500 | > 500 | > 1000 | > 500 | > 1000 |  | C[C@H]1CC[C@H](c2ccc3c(c2)CNC3=O)N(C(=O)C(=O)Nc2cncc(C(N)=O)c2)C1 (single isomer, unassigned) [Compound 741, 5-(2-(5-methyl-2-(1-oxoisoindolin-5-yl)piperidin-1-yl)-2-oxoacetamido)nicotinamide] | > 10 | C (an IC50 ratio of less than 3 fold)
< 50 | 50 to 500 | > 1000 | 50 to 500 | 100 to 1000 |  | COc1ncc(NC(=O)C(=O)N2C[C@H](C)CC[C@H]2c2cc(F)c(F)c(F)c2)cc1C(N)=O (single isomer, unassigned) [Compound 742] | 1 to 10 | A (an IC50 ratio greater than or equal to 10 fold)
< 50 | 50 to 500 | > 1000 | < 50 | 100 to 1000 |  | C[C@@H]1CC[C@@H](c2ccc3c(c2)C(=O)NC3)N(C(=O)C(=O)Nc2cncc(C(N)=O)c2)C1 (single isomer, unassigned) [Compound 746] | 1 to 10 | A (an IC50 ratio greater than or equal to 10 fold)
< 50 | 50 to 500 | 100 to 1000 | < 50 | < 100 |  | CCc1cc(NC(=O)C(=O)N2C[C@@H](C)CC[C@@H]2c2ccc3[nH]cnc3c2)cnc1N (single isomer, unassigned) [Compound 748] | < 1 | A (an IC50 ratio greater than or equal to 10 fold)
< 50 | 50 to 500 | > 1000 | 50 to 500 | 100 to 1000 |  | COc1ncc(NC(=O)C(=O)N2C[C@H](C)CC[C@H]2c2ccc3c(c2)CNC3=O)cc1C(N)=O (single isomer, unassigned) [Compound 749, 2-methoxy-5-(2-(5-methyl-2-(1-oxoisoindolin-5-yl)piperidin-1-yl)-2-oxoacetamido)nicotinamide] | 1 to 10 | A (an IC50 ratio greater than or equal to 10 fold)
> 500 | > 500 | > 1000 | > 500 | > 1000 |  | COc1ncc(NC(=O)C(=O)N2C[C@@H](C)CC[C@@H]2c2ccc3c(c2)CNC3=O)cc1C(N)=O (single isomer, unassigned) [Compound 750, 2-methoxy-5-(2-(5-methyl-2-(1-oxoisoindolin-5-yl)piperidin-1-yl)-2-oxoacetamido)nicotinamide] | > 10 | C (an IC50 ratio of less than 3 fold)
> 500 | > 500 | > 1000 | > 500 | > 1000 |  | C[C@H]1CC[C@H](c2ccc3c(c2)C(=O)NC3)N(C(=O)C(=O)Nc2cncc(C(N)=O)c2)C1 (single isomer, unassigned) [Compound 751] | > 10 | C (an IC50 ratio of less than 3 fold)
< 50 | 50 to 500 | > 1000 | 50 to 500 | < 100 |  | COc1ncc(NC(=O)C(=O)N2C[C@H](C)CC[C@H]2c2ccc(C)nc2)cc1C(N)=O (single isomer, unassigned) [Compound 754] | 1 to 10 | A (an IC50 ratio greater than or equal to 10 fold)
> 500 | > 500 | > 1000 | > 500 | > 1000 |  | CCc1cc(NC(=O)C(=O)N2C[C@H](C)CC[C@H]2c2ccc(C)nc2)cnc1N (single isomer, unassigned) [Compound 756] | > 10 | B (an IC50 ratio greater than or equal to 3 fold but lower than 10 fold)
< 50 | 50 to 500 | > 1000 | < 50 | < 100 |  | COc1ncc(NC(=O)C(=O)N2C[C@H](C)CC[C@H]2c2ccc(NC(C)=O)cc2)cc1C(N)=O (single isomer, unassigned) [Compound 760] | < 1 | A (an IC50 ratio greater than or equal to 10 fold)
> 500 | > 500 | > 1000 | > 500 | > 1000 |  | COc1ncc(NC(=O)C(=O)N2C[C@@H](C)CC[C@@H]2c2ccc(NC(C)=O)cc2)cc1C(N)=O (single isomer, unassigned) [Compound 761] | > 10 | C (an IC50 ratio of less than 3 fold)
< 50 | < 50 | < 100 | < 50 | < 100 |  | Cc1cc(NC(=O)C(=O)N2C[C@@H](C)CC[C@@H]2c2ccc3[nH]c(=O)ccc3c2)cnc1N (single isomer, unassigned) [Compound 762] | < 1 | B (an IC50 ratio greater than or equal to 3 fold but lower than 10 fold)
> 500 | > 500 | > 1000 | > 500 | > 1000 |  | Cc1cc(NC(=O)C(=O)N2C[C@H](C)CC[C@H]2c2ccc3[nH]c(=O)ccc3c2)cnc1N (single isomer, unassigned) [Compound 763] | > 10 | B (an IC50 ratio greater than or equal to 3 fold but lower than 10 fold)
< 50 | 50 to 500 | > 1000 | 50 to 500 | 100 to 1000 |  | CCOc1ncc(NC(=O)C(=O)N2C[C@@H](C)CC[C@@H]2c2ccccc2)cc1C(N)=O (single isomer, unassigned) [Compound 764] | 1 to 10 | A (an IC50 ratio greater than or equal to 10 fold)
> 500 | > 500 | > 1000 | > 500 | > 1000 |  | CCOc1ncc(NC(=O)C(=O)N2C[C@H](C)CC[C@H]2c2ccccc2)cc1C(N)=O (single isomer, unassigned) [Compound 765] | > 10 | C (an IC50 ratio of less than 3 fold)
> 500 | > 500 | > 1000 | > 500 |  | > 1000 | [H][C@]1([C@]2([H])C[C@]3(C[C@H](O)C3)C2)CC[C@H](C)CN1C(=O)C(=O)Nc1cnc(N)c(C)c1 (single isomer, unassigned) [Compound 766] | > 10 | C (an IC50 ratio of less than 3 fold)
